Results reported in US9402839B2, “Selective targeting agents for mitochondria” (University of Pittsburgh—Of the Commonwealth System of …, priority 2006, dated 2016).

Columns and labels:
[1] = test system: phospholipids in intestinal mucosa; test: Assay for peroxidation of phospholipids in gut mucosa after hemorrhagic shock; type: in vivo, rat; conditions: intraluminal 10 μM, 2 h HS
Method: (§1) After 2 h of shock, the animals were euthanized with an intracardiac KCl bolus injection. The ileum was rapidly excised from the ileocecal valve to the most proximal gut segment. The tips of each segment were discarded. In order to assay caspases 3 and 7 activity and phospholipids peroxidation, mucosa samples were collected from gut segments immediately after hemorrhage and stored at −80° C. For permeability measurements, each segment was converted into an everted gut sac, as previously described by Wattanasirichaigoon et al., see Wattanasirichaigoon, S. et al., Effect of mesenteric ischemia and reperfusion or hemorrhagic shock on intestinal mucosal permeability and ATP content in rats, SHOCK, 12:127-133 (1999).
Assay for peroxidation of phospholipids. Gut mucosal samples were homogenized. Lipids were extracted from homogenates using the Folch procedure, see M. Lees and G. H. Sloan-Stanley, A simple method for isolation and purification of total lipids from animal tissue, J. BIOL. CHEM. 226:497-509 (1957), and resolved by 2D HPTLC (High Performance Thin Layer Chromatography) as previously described, see Kagan, V. E. et al., A role for oxidative stress in apoptosis: Oxidation and externalization of phosphatidylserine is required for macrophage clearance of cell undergoing Fas-mediated apoptosis, J. IMMUMOL. 169:487-489 (2002). Spots of phospholipids were scraped from HPTLC plates and phospholipids were extracted from silica. Lipid phosphorus was determined by a micro-method, see Bottcher, C. J. F. et al., A rapid and sensitive sub-micro phosphorus determination, ANAL. CHIM. ACTA 24: 203-204 (1961).
Oxidized phospholipids were hydrolyzed by pancreatic phospholipase A2 (2 U/μl) in 25 mM phosphate buffer containing 1 mM CaCl2, 0.5 mM EDTA and 0.5 mM sodium dodecyl sulfate (SDS) (pH 8.0, at room temperature for 30 min). Fatty acid hydroperoxides formed were determined by fluorescence HPLC of resorufin stoichiometrically formed during their microperoxidase 11-catalized reduction in presence of Amplex Red (for 40 min at 4° C.) (8). Fluorescence HPLC (ECLIPSE XDB-C18 column, 5 μm, 150×4.6 mm, mobile phase was composed of 25 mM disodium phosphate buffer (pH 7.0)/methanol (60:40 v/v); excitation wavelength 560 nm, emission wavelength 590 nm) was performed on a SHIMADZU LC-100AT HPLC system equipped with fluorescence detector (RF-10Ax1) and autosampler (SIL-10AD).
In the subsequent series of in vivo studies, the affect of intraluminal XJB-5-131 on hemorrhage-induced peroxidation of phospholipids in intestinal mucosa was examined. […] In a preferred embodiment, 0.3 mL of test solution filled the lumen of each ileal compartment. […]

caspases 3 and 7 = test: Caspases 3 and 7 activity assay in rat gut mucosa homogenate after hemorrhagic shock; type: in vivo; conditions: intraluminal 10 μM versus vehicle
Method: as §1
Caspases 3 and 7 activity assay. Caspases 3 and 7 activity was measured using a commercially available assay kit, CASPASE GLO™ 3/7 assay kit (PROMEGA, Madison, Wis.). […] At the end of incubation period, the luminescence of each sample was measured using a plate reading chemiluminometer (ML1000, DYNATECH LABORATORIES, Horsham, Pa.). Activity of caspases 3 and 7 was expressed as luminescence intensity (arbitrary units per mg protein). Protein concentrations were determined using the BIORAD assay (BIO-RAD LABORATORIES, Inc., Hercules, Calif.). […]

[2] = test system: Caco-2BBe human enterocyte-like monolayers; test: Permeability of Caco-2 monolayers exposed to menadione (FD4 clearance); type: cell-based; conditions: 10 μM apical, menadione 50 μM, 6 hours
Method: Cells. Caco-2BBe human enterocyte-like epithelial cells were obtained from the AMERICAN TYPE CULTURE COLLECTION (Manassas, Va.). Cells were routinely maintained at 37° C. in under a humidified atmosphere containing 8% CO2 in air. The culture medium was DMEM supplemented with 10% FBS, non-essential amino acids supplement (SIGMA-ALDRICH catalogue #M7145), sodium pyruvate (2 mM), streptomycin (0.1 mg/ml), penicillin G (100 U/ml) and human transferrin (0.01 mg/ml). The culture medium was changed 3 times per week.
Measurement of permeability of Caco-2 monolayers. Caco-2BBe cells were plated at a density of 5×10^4 cells/well on permeable filters (0.4 μm pore size) in 12-well bicameral chambers (TRANSWELL, COSTAR, Corning, N.Y.).
Briefly, the medium on the basolateral side was replaced with control medium or medium containing menadione (50 μM final). Medium containing FD4 (25 mg/ml) was applied to the apical chamber. In some cases, one of the gramicidin S-based compounds, XJB-5-131, also was added to the apical side at final concentrations of 0.1, 1, 10 or 100 μM. […] Permeability of the monolayers was expressed as a clearance (pL·h^−1·cm^−2), see Han, X. et al., Proinflammatory cytokines cause NO dependent and independent changes in expression and localization of tight junction proteins in intestinal epithelial cells, SHOCK 19:229-237 (2003). […]

Structure (SMILES): CC(C)C[C@@H](/C=C/[C@H](Cc1ccccc1)C(=O)N1CCC[C@H]1C(=O)N[C@H](C(=O)N[C@@H](CCCNC(=O)OCc1ccccc1)C(=O)NC1CC(C)(C)N([O])C(C)(C)C1)C(C)C)NC(=O)OC(C)(C)C [XJB-5-131]
- hemorrhage-induced peroxidation of cardiolipin (CL) [1]: significantly ameliorated
- peroxidation of phosphatidylcholine (PC) [1]: no effect
- peroxidation of phosphatidylethanolamine (PE) [1]: small effect
- peroxidation of phosphatidylserine (PS) [1]: no effect
- caspase 3 and 7 activity in ileal mucosa after hemorrhagic shock (caspases 3 and 7): significantly decreased
- protection against menadione-induced hyperpermeability [2]: significant protection
